In patent publication US6177441A, “Treating red blood cell solutions with anti-viral agents” (Cerus Corporation, priority 1998, dated 2001):
Structures can show the parent of a compound that is named as a salt.

Columns and labels:
[1] = tested on: R17; format: cell-based, bacteriophage R17
[2] = tested on: red blood cells
[3] = tested on: R17; assay: R17 inactivation by Compound 1 in packed red blood cells (Example 2); format: cell-based, bacteriophage R17
Procedure: Another experiment was performed to test the inactivation ability of a novel compound, Compound 1. A 1:1000 dilution of R17 (stock titer was 11.9 logs) was prepared in 25 ml packed red blood cells. To each of 5 tubes was added 5 ml of this R17-packed red blood cell solution. Compound 1 was then dissolved in saline to a final concentration of 3 mg/ml. The compound in solution was added to the […] as follows: the first tube, the control tube, received saline only; the second tube received 10 μg/ml of Compound 1 in saline; the third tube received 30 μg/ml of Compound 1 in saline; the forth tube received 100 μg/ml Compound 1 in saline and the final tube received 300 μg/ml of Compound 1 in saline. The tubes were mixed and then incubated at 4° C. overnight. […] Concentrations above 30 μg/ml inactivated approximately 4 logs of R17 with a starting titer of 10 logs of R17.

[4] = tested on: cell-free HIV; assay: microbe, parasite or virus in culture; format: cell-based; settings: Human immunodeficiency virus 1, Erythrocyte, 100 min
[5] = tested on: cell-associated HIV; assay: microbe, parasite or virus in culture; format: cell-based, HIVIIIB; settings: Human immunodeficiency virus 1, Erythrocyte
[6] = tested on: red blood cells; settings: mouse, in vivo
[7] = tested on: red blood cells; settings: mouse, in vivo; remark: listed apart in the source
[8] = tested on: R17; assay: Kinetics of R17 inactivation by QM with NAC quench (Example 3); settings: for Log Titer: NAC/no QM, no NAC/no QM 8.80
[9] = tested on: red cells; settings: photo treatment; cited from earlier work
[10] = tested on: R17

O=C(O)CCCc1ccc(N(CCCl)CCCl)cc1 [Chlorambucil, chlorambucil]
R17 inactivation [1]: ≤ 0.4 logs
R17 inactivation (words) [1]: little or no inactivation
IgG binding of red cells [2]: did not alter

COc1c2occc2c(CN(CCCl)CCCl)c2ccc(=O)oc12 [Compound 1, 5-[N,N-bis(2-chloroethyl)amino]methyl-8-methoxypsoralen hydrochloride]
R17 inactivation activity ([3]; 10-300 μg/ml in packed red blood cells): showed R17 inactivation activity
R17 inactivated ([3]; concentrations above 30 μg/ml, 4° C. overnight, starting titer 10 logs): approximately 4 logs

CCN(CCCl)CCCNc1c2ccc(Cl)cc2nc2ccc(OC)cc12.Cl.Cl [ICR-170, N-(2-chloroethyl)-N-ethyl-N'-(6-chloro-2-methoxy-9-acridinyl)-1,3-propanediamine dihydrochloride]
log reduction at 10 µg/mL [4]: 0.6
log reduction at 20 µg/mL [4]: 1.3
log reduction at 40 µg/mL [4]: 2.3
log reduction at 80 µg/mL [4]: 4
log reduction at 10 µg/mL [5]: 0.5
log reduction at 20 µg/mL [5]: 1.2
log reduction at 40 µg/mL [5]: 2
log reduction at 80 µg/mL [5]: 2
LOSS PER DAY [6]: 2.71%
RECOVERY [6]: 86.0 ± 6.6
% RECOVERY, HIGH [7]: 90.4
% RECOVERY, LOW [7]: 93.1

CC(=O)N[C@@H](CS)C(=O)O [NAC, N-acetyl-cysteine]
R17 kill by NAC alone [8]: does not kill R17
protection against QM inactivation ([8]; NAC added before QM): substantial, but not complete protection against QM inactivation
Log Titer ([8]; dilute at end): 8.35
Log Titer ([8]; dilute): 8.73
quenching of QM activity ([8]; combination of NAC and dilution): almost complete quenching of QM activity

CN(C)c1ccc2nc3ccc(=[N+](C)C)cc-3sc2c1 [methylene blue]
ATP of photo treated red cells [9]: loss of ATP
IgG binding of photo treated red cells [9]: binding of autologous immunoglobulin (IgG) to the red cell surface
ion permeability of photo treated red cells [9]: enhanced ion permeability

CCN(CC)CCCC(C)Nc1c2ccc(Cl)cc2nc2ccc(OC)cc12 (centres unmarked) [quinacrine]
light-dependent kill of R17 [10]: no light-dependent kill
